Values quoted from earlier work, collected in patent US20200360403A1, “OPTHALMIC COMPOSITIONS FOR INHIBITING CLOUDING OF THE OCULAR LENS” (priority 2019, published 2020).

Experiments:
aggregated lens protein = conditions: all studies by Daszynski et al.
cffl-crystallins = conditions: compared to ATP

SMILES | anti-cataractogenic activity or binding of aggregated lens protein to dissolve cataracts (aggregated lens protein) | binding scores for good predictive binding to the crystallins (cffl-crystallins)
C[C@H](CCCC(C)(C)O)[C@H]1CC[C@H]2[C@@H]3CC=C4C[C@@H](O)CC[C@]4(C)[C@H]3CC[C@]12C [25-hydroxycholesterol] | failed to provide evidence | failed to reach the acceptable threshold binding scores
CC(C)=CCC[C@@H](C)[C@H]1CC[C@@]2(C)C3=C(CC[C@]12C)[C@@]1(C)CC[C@H](O)C(C)(C)[C@@H]1CC3 [lanosterol] | failed to provide evidence | failed to reach the acceptable threshold binding scores
